Test results taken from PMC8704315, “Lichen-Derived Compounds and Extracts as Biologically Active Substances with Anticancer and Neuroprotective Properties” (Pharmaceuticals, 2021).

Columns and labels:
[1] = target: T1, indoleamine 2,3-dioxygenases 2 (IDO2) (Homo sapiens, UniProt Q6ZQW0); test: Universal IDO1/IDO2/TDO Inhibitor Screening Assay Kit, IDO2; type: biochemical; conditions: read-out: Inhibition (%) IDO2
T1 construct: purchased BPS Bioscience, Inc. (San Diego, CA, USA)
T1 sequence (Q6ZQW0 1-407): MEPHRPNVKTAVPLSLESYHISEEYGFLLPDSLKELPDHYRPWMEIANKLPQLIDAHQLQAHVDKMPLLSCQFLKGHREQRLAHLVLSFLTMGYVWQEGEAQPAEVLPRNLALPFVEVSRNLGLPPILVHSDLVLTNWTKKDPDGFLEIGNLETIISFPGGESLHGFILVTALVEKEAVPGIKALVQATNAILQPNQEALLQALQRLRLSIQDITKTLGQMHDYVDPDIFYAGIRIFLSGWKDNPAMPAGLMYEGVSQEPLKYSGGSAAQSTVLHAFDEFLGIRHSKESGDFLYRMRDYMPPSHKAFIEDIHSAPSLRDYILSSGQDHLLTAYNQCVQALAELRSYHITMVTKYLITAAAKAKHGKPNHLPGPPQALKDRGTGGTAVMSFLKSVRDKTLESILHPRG
Procedure: (§1) This colorimetric assay is based on the measurement of the ability of IDO1, IDO2 and TDO to convert L-tryptophan into N-formylkynurenine (NFK). The experiments were performed according to the manufacturer’s guidelines. The final concentration of the compounds and extracts in the reaction mixture was 100 µg/mL. The amount of NFK was measured spectrophotometrically at 320 nm using an Epoch BioTek microplate reader (BioTek Instruments, Inc., Winooski, VT, USA). The samples were run in triplicate and the results were expressed as mean ± SEM.

[2] = target: T2, tryptophan 2,3-dioxygenase (TDO) (Homo sapiens, UniProt P48775); test: Universal IDO1/IDO2/TDO Inhibitor Screening Assay Kit, TDO; type: biochemical; conditions: read-out: Inhibition (%) TDO
T2 construct: purchased BPS Bioscience, Inc. (San Diego, CA, USA)
Procedure: as §1

T2 sequence (P48775 whole entry, species assumed): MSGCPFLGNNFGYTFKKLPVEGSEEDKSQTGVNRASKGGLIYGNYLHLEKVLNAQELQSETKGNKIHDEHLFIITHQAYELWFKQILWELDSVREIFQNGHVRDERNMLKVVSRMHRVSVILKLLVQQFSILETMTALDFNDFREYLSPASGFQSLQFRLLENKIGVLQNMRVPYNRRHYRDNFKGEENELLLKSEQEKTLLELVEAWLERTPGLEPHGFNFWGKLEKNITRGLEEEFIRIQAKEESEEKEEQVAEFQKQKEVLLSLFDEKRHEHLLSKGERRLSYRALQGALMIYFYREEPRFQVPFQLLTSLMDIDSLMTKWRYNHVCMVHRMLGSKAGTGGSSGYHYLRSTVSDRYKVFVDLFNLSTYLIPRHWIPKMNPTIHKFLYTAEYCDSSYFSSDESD

NS(=O)(=O)NCCNc1nonc1C(=NO)Nc1ccc(F)c(Br)c1 [epacadostat, reference compound]
inhibition at 100 µg/mL [1]: < 10%
inhibition at 100 µg/mL [2]: < 10%
